Test system: RAW264.7
Test: Antiinflammatory activity against mouse RAW264.7 cells assessed as inhibition of LPS-induced NO production preincubated for 3 hrs followed by LPS-stimulation and measured after 24 hrs by Griess reagent based assay
Format: functional, cell-based

With COc1cc(OC)c2c(O)c3c(=O)cc(C)oc3c(-c3c(OC)cc4cc(O)c5c(=O)cc(C)oc5c4c3OC)c2c1 (atropisomer aS) [FONSECINONE A] the Activity was “Dose-dependent effect” and the IC50 was 7 µM.
